What is called IC50 is the concentration that gives 50% inhibition. As a reminder, the EC50 is the midpoint of the concentration-response curve. A word on the AC50: it is the midpoint of the concentration-response curve, whichever way the signal moves.

Activity calls are given as the source filed them.

Drawing on ChEMBL document CHEMBL1201862, “PubChem BioAssay data set” (2004), this text covers IC50, EC50 and AC50 for four molecules.

Test [1] deals with Nuclear receptor subfamily 5 group A member 2 (Homo sapiens, UniProt O00482). Type of test: functional, cell-based.
Test [2] is described as follows: StAR promoter reporter inhibition counter-screen, dose response, counter-screen for LRH-1 inverse agonist project, cell-based, luminescence, luciferase reporter (AID 651969). Type of test: functional. For orientation: The purpose of a counterscreen is to sort out artefacts and off-target activity.
Test [3] in a line: Counterscreen for activators of the function of SWI/SNF related, matrix associated, actin dependent regulator of chromatin, subfamily a, member 2 (SMARCA2, BRM): Luminescence-based cell-based high throughput dose response assay to identify non-selective compounds using the VP16 reporter assay. Type of test: functional.
Test [4] concerns the target T1, Microphthalmia-associated transcription factor (Homo sapiens, UniProt O75030).
T1 sequence (O75030 whole entry): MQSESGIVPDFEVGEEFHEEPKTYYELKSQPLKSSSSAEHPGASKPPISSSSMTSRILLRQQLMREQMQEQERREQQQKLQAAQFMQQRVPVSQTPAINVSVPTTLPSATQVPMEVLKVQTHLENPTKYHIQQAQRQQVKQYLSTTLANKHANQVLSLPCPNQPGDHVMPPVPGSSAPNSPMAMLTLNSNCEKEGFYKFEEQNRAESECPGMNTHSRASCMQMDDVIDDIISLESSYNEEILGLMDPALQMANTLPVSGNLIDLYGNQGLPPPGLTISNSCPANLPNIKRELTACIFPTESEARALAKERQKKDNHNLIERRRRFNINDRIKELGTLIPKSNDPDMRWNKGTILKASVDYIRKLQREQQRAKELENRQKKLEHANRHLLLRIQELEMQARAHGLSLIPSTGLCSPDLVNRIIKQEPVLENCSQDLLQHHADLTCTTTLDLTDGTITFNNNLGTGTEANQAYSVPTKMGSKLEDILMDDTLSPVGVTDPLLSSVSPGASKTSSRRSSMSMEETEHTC
Briefly: TRPM1 promoter luciferase signal decrease, dose response, MITF inhibitor project, cell-based, SK-MEL-5, cherry-picked, set 3 (AID 493073).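 Note: SK-MEL-5 melanoma cells with luciferase driven by the MITF target TRPM1 promoter.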 Type of test: functional.

In test [5] the test system is HEK293. Briefly: SAR Analysis of small molecule inhibitors of T-cell specific antigen receptor-induced NF-kB activation in a HEK-293T cell line using a luminescence assay - Set 2. [Related pubchem assays (depositor defined):AID435003, AID435012, AID489026]. Type of test: functional, cell-based. The note with it: Homo sapiens.
Test [6] has as its target Sphingosine 1-phosphate receptor 1 (Homo sapiens, UniProt P21453). The format is functional.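 Note: Tango beta-arrestin reporter U2OS cells stimulated with S1P near its EC80; inhibitor potency meaning antagonism of receptor activation by the natural agonist.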
The subject of test [7] is HEK293. Briefly: cytotoxicity in HEK293T NF-kB-Luc cells, SAR follow-up, cytotoxicity control for NF-kB activator project, cell-based, resazurin fluorescence (AID 493251). The format is functional. Particulars: Homo sapiens.
Test [8] is described as follows: C. albicans growth with fluconazole, confirmation, fluorescence, retest (AID 2467). Type of test: functional, cell-based.
Another test has as its target Steroidogenic factor 1 (Homo sapiens, UniProt Q13285). Description: Counterscreen for inverse agonists of the liver receptor homolog-1 (LRH-1; NR5A2): Luminescence-based cell-based high throughput dose response assay to identify inverse agonists of the Steroidogenic Factor 1 Nuclear Receptor (SF1; NR5A1). Type of test: functional.
In test [9] the target is SWI/SNF-related matrix-associated actin-dependent regulator of chromatin subfamily A member 2 (Homo sapiens, UniProt P51531). Briefly: Luminescence-based cell-based high throughput dose response assay to identify activators of the function of SWI/SNF related, matrix associated, actin dependent regulator of chromatin, subfamily a, member 2 (SMARCA2, BRM). Type of test: functional.

Test [10] has as its target T2, Sphingosine 1-phosphate receptor 4 (Homo sapiens, UniProt O95977).
T2 sequence (O95977 whole entry): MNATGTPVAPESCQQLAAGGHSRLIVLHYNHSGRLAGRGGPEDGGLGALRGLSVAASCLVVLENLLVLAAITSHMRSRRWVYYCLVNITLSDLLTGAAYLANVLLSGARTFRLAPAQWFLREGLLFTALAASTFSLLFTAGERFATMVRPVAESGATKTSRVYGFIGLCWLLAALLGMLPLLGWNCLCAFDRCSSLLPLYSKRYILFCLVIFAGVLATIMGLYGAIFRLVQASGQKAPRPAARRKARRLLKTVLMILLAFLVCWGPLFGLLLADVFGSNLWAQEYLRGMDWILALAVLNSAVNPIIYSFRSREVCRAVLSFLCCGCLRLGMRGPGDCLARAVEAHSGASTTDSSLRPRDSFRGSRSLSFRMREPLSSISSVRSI
Briefly: Fluorescence dose response cell-based high throughput screening assay for antagonists of the Sphingosine 1-Phosphate Receptor 4 (S1P4). [Related pubchem assays: 1524 (Confirmation in triplicates.), 1510 (Primary screen.)]. The format is functional.

A short description of test [11]: NIH-3T3 fibroblast cytotoxicity, dose response, cytotoxicity control, cell-based, fluorescence, Alamar Blue, secondary assay (AID 2327).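 Note: NIH-3T3 mouse fibroblasts cultured with fluconazole at 8 µg/mL.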 Type of test: functional.
The target in a further test is Paired box protein Pax-8 (Homo sapiens, UniProt Q06710). Briefly: inhibitors of PAX8-driven TPO luciferase reporter, dose response, RMG-I cells, cherry-pick (AID 687027).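 Note: luciferase reporter driven by Pax8 target thyroperoxidase promoter measured by SteadyGlo luminescence.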 Type of test: functional, cell-based. A general note: In a reporter assay the amount or activity of a reporter protein is the signal.
Another test concerns Jurkat. Description: SAR Analysis of small molecule inhibitors of T-cell specific antigen receptor-induced NF-kB activation in a Jurkat cell line using a luminescence assay - Set 2. [Related pubchem assays (depositor defined):AID435003, AID435012, AID465]. The format is functional, cell-based. Particulars: Homo sapiens.
For another test, the target named is Cysteine protease ATG4B (Homo sapiens, UniProt Q9Y4P1). The format is functional.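 Note: Fluorescence-based dose-response confirmation assay measuring inhibition of ATG4B activity.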
In a further test the target is Phospholipase A2 (Homo sapiens, UniProt P04054). The format is functional.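 Note: confirmatory dose-response counterscreen on phospholipase A2, testing hits that came from an ultra-high-throughput screen for ATG4B inhibitors.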
The target in the next test is Genome polyprotein (dengue virus type 2, UniProt P29990). Description: Dengue-2 NS5 methyltransferase inhibitors, primary screen, biochemical, confirmation dose response (AID 588689). Type of test: functional.
Test [12] deals with T3, Zinc finger protein mex-5 (Caenorhabditis elegans, UniProt Q9XUB2).
T3 sequence (Q9XUB2 whole entry): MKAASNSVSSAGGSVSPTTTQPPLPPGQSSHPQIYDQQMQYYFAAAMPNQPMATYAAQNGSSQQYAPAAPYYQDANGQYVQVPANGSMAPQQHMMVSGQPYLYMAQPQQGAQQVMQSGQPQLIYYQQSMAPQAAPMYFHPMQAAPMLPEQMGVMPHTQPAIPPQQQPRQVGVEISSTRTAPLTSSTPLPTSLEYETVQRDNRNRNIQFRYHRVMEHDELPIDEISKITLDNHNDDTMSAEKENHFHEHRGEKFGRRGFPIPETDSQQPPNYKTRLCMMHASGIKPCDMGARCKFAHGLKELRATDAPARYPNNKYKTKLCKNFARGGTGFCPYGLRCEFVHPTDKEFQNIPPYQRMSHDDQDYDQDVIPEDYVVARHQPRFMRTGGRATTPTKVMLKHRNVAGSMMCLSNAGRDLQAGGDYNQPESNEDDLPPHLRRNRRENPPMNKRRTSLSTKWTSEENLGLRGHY
Briefly: MEX-5/TCR-2 RNA interaction inhibitors, dose response, biochemical, C. elegans, fluorescence polarization (AID 1960). Background: Polarisation of emitted light reports the rotation of a fluorescent probe.

Test [13] deals with T4, RNA-binding protein pos-1 (Caenorhabditis elegans, UniProt G5EF15).
T4 sequence (G5EF15 whole entry): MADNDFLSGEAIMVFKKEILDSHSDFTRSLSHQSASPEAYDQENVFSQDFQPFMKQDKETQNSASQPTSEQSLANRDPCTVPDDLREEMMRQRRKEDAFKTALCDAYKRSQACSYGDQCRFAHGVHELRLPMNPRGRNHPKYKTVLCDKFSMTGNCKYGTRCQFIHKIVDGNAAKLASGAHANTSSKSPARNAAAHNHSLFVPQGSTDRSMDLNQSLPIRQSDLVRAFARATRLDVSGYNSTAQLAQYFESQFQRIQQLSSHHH
Description: inhibitors of POS-1/mex-3 RNA binding, dose response, biochemical, fluorescence polarization (AID 1964).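 Note: purified POS-1 fused to maltose binding protein made in E. coli; potency of compounds blocking POS-1 binding to fluorescent RNA.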

Another test deals with DNA topoisomerase (Yersinia pestis, UniProt A0A2S9PM60). Briefly: Y. pestis Topo-I inhibitors, cleavage product readout, dose response, biochemical, cherry-pick (AID 588525).
Test [14] concerns the target T5, Beta-adrenergic receptor kinase 1 (Homo sapiens, UniProt P25098). Description: Inhibitors of aptamer binding to bead-bound beta-adrenergic receptor kinase 1 by flow cytometry, biochemical, cherry pick 2, EC50 (AID 504815).
The target in test [15] is T5, Beta-adrenergic receptor kinase 1. Description: aptamer displacement from bead-bound GRK2 – biochemical, cherry pick 1, bead flow cytometry, dose response (AID 504500).
The target in test [16] is T6, Carboxy-terminal domain RNA polymerase II polypeptide A small phosphatase 1 (Homo sapiens, UniProt Q9GZU7).
T6 sequence (Q9GZU7 whole entry): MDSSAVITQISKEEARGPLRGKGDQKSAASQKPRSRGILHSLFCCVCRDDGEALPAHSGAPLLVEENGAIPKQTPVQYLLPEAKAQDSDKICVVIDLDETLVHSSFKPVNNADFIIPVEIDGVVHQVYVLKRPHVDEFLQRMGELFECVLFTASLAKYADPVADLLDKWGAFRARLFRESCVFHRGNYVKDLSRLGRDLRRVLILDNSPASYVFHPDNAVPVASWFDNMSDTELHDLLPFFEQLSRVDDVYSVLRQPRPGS
Description: inhibitors of CTDSP1, concentration-response testing, biochemical assay, absorbance-based, actives from ultra-high-throughput screening (AID 540297). Type of test: functional.

T5 sequence (P25098 whole entry): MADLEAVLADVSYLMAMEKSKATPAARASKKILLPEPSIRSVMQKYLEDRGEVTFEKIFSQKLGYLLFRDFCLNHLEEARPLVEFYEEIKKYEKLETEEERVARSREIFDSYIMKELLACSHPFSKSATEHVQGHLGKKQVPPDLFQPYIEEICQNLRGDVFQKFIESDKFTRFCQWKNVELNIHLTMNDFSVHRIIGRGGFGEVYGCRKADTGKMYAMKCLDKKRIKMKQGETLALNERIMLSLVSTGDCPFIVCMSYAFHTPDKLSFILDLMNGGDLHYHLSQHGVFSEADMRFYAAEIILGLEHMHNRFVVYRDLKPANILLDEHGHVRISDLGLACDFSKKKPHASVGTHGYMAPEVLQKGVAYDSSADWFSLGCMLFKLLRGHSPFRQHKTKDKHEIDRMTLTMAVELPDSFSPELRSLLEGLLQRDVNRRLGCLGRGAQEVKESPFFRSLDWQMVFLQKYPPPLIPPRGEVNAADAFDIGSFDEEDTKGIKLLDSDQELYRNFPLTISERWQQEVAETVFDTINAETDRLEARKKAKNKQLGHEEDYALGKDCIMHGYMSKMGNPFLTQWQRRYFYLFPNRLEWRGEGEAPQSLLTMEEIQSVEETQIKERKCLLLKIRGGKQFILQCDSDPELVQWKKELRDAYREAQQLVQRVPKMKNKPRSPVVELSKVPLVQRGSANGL
Sphingosine 1-phosphate receptor 1, sequence (P21453 whole entry): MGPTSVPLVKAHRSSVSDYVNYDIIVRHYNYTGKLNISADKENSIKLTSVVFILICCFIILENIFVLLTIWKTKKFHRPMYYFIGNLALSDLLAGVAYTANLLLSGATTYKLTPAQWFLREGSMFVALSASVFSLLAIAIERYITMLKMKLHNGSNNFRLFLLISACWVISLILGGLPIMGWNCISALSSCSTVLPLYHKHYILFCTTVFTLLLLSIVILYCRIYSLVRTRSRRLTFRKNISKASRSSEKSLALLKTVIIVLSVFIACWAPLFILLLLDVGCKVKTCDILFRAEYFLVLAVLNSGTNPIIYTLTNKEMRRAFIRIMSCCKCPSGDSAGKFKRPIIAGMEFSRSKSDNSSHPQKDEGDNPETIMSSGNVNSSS
Steroidogenic factor 1, sequence (Q13285 whole entry): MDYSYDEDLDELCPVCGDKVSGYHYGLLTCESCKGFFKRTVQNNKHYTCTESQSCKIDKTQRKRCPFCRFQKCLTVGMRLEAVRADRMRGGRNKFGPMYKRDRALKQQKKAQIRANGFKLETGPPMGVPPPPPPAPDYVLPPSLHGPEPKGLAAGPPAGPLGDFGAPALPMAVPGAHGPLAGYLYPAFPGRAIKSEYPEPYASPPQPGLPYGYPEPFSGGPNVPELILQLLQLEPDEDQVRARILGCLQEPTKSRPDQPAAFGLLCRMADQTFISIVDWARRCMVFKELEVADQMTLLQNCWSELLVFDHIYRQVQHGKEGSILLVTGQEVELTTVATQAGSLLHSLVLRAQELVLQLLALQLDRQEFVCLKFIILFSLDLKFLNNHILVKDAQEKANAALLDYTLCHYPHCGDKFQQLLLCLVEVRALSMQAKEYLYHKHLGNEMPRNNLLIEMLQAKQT
Nuclear receptor subfamily 5 group A member 2, sequence (O00482 whole entry): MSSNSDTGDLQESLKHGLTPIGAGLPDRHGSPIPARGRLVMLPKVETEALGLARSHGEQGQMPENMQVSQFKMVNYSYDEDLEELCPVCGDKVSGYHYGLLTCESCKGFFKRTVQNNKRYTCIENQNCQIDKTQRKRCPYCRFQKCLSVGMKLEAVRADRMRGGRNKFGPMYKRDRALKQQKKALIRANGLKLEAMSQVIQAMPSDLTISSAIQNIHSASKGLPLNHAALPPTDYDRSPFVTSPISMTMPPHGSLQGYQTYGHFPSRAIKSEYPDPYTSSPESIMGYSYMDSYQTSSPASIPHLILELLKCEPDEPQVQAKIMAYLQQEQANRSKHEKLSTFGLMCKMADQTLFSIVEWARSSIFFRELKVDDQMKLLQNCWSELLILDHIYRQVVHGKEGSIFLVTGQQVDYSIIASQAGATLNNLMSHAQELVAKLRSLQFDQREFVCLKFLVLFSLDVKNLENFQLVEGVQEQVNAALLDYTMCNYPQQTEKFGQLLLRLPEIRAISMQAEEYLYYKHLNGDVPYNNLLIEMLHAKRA
SWI/SNF-related matrix-associated actin-dependent regulator of chromatin subfamily A member 2, sequence (P51531 whole entry): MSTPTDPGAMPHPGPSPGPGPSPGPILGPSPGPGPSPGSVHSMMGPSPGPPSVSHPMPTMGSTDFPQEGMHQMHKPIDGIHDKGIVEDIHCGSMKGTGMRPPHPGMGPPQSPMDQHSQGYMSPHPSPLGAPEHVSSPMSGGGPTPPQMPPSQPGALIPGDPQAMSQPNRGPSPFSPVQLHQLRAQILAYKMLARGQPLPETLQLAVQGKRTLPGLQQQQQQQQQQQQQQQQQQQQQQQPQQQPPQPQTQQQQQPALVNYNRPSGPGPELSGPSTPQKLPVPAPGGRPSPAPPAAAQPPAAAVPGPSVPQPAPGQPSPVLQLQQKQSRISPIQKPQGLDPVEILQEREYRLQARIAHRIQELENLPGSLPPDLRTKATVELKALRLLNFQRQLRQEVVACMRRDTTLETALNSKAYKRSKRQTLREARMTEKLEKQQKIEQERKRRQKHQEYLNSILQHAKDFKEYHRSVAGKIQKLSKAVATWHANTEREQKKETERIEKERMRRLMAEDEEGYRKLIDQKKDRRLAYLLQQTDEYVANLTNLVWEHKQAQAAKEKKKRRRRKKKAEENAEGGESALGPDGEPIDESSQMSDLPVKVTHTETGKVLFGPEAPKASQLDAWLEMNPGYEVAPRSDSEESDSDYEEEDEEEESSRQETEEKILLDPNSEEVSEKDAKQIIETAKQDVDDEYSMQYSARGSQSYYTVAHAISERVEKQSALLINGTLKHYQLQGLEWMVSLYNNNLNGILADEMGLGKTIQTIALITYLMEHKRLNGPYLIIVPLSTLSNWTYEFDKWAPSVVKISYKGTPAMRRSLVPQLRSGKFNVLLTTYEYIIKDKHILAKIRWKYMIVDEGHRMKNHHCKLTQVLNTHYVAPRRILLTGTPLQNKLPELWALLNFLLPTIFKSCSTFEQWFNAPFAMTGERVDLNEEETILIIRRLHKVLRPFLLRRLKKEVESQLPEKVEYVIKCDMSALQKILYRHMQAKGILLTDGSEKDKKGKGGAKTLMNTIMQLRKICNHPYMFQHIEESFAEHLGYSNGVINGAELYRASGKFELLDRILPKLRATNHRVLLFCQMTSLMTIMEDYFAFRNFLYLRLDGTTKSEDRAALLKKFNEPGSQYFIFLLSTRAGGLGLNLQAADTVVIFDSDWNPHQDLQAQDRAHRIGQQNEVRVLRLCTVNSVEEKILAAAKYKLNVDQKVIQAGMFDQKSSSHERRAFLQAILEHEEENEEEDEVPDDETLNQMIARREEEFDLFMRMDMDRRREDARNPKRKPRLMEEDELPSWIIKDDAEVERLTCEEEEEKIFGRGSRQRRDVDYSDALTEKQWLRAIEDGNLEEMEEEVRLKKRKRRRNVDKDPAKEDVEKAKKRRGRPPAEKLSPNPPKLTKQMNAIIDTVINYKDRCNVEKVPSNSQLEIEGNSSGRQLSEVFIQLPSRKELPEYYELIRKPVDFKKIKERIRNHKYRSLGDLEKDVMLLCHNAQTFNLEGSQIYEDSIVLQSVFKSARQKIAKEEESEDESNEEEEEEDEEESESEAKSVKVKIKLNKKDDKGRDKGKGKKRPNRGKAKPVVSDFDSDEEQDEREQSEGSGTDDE
Genome polyprotein, sequence (P29990 2492-3391 limits assumed): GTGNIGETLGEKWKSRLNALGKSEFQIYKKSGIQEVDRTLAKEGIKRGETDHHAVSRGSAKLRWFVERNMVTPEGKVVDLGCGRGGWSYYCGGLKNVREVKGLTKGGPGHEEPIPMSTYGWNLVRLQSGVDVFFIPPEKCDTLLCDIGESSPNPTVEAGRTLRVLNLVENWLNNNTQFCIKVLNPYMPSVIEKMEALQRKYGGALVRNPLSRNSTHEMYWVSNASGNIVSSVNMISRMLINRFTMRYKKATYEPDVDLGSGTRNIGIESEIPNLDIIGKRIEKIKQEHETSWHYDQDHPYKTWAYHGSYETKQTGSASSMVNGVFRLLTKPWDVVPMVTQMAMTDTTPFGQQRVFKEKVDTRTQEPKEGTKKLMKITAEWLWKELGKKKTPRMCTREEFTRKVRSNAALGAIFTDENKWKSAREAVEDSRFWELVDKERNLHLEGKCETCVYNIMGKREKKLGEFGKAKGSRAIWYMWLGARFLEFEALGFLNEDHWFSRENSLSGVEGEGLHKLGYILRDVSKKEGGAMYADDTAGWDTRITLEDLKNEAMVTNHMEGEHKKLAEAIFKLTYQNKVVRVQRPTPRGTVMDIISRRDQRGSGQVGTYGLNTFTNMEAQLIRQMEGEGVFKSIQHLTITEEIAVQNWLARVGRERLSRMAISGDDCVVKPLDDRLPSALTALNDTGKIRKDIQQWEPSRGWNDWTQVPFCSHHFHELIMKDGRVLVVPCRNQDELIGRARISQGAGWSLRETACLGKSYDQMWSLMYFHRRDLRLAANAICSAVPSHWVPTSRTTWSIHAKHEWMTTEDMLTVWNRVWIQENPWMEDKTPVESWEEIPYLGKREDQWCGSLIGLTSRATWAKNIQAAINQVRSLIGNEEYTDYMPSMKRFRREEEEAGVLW
Paired box protein Pax-8, sequence (Q06710 whole entry): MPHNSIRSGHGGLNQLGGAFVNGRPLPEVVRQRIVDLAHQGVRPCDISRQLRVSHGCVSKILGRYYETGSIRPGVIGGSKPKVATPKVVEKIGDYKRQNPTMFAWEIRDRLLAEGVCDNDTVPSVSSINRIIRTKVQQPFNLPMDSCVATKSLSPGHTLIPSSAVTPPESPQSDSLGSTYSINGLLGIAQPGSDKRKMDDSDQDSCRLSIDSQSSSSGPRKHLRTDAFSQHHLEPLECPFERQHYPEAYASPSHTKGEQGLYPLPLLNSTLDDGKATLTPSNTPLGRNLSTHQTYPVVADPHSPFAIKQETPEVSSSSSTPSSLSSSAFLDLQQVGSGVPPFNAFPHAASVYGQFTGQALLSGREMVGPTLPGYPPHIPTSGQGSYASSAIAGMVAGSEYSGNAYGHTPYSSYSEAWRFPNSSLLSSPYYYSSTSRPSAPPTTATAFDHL

Turning to `Cc1cc(NC(=O)c2ccc([N+](=O)[O-])o2)ccc1NC(=O)c1ccco1`, the IC50 in test [1] was 35.9 µM (inactive); in test [2], 35.9 µM (inactive); with HEK293 [5], 27 µM (inactive); in test [6], 11.5 µM (not active); in the test with HEK293 [7], 42.4 µM (inactive); at Steroidogenic factor 1, 0.766 µM (active). For the same molecule, the IC50 was 1.87 µM (active) in [10] and 31.1 µM (inactive) with Jurkat. Also, the EC50 in [3] is > 91.2 µM (inactive); in test [8], > 38 µM (not active); in test [9], > 91.2 µM (inactive); in test [11], 4.78 µM (inconclusive). For the same molecule, the AC50 was 7.8 µM (active) in test [4] and 5.2 µM (active) at Paired box protein Pax-8.
On to `CCCCCCCCCCCCCCCCCCNc1ccn(C2OC(COP(=O)(O)OCC3OC(n4cc(F)c(=O)[nH]c4=O)CC3O)C(O)C2O)c(=O)n1` (stereo not drawn), for which the figures for the IC50 on Cysteine protease ATG4B and at Phospholipase A2 were 10.8 µM (active) and 9.09 µM (active), respectively.
In the case of `C=CCOc1cccc(C2C(C(=O)c3cc4ccccc4o3)=C(O)C(=O)N2c2cc(C)on2)c1` (stereo not drawn), the IC50 at Genome polyprotein is 48.6 µM (active). The results for the EC50 in [12] and in [13] were 80.5 µM (active) and > 300 µM (not active), respectively. Besides, on DNA topoisomerase, the AC50 is 7.35 µM (active).
In the case of `CCc1cccc(NC(=O)CCS(=O)(=O)c2ccc(Br)cc2)c1`, the EC50 in test [14] was 6.25 µM (active); in test [15] it was 58.3 µM (inactive). In [16], the IC50 was 6.99 µM (active).
